ChEMBL document CHEMBL1201861, “Genomics of Drug Sensitity in Cancer screening data, Wellcome Trust Sanger Institute”

What was measured:
Test in all cases: cells
Conditions in all cases: Homo sapiens
NCI-H1650 = type: functional, cell-based;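 also: growth inhibition of human NCI-H1650 cells measured by a cell viability assay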
Description: SANGER: Inhibition of human NCI-H1650 cell growth in a cell viability assay.

Mo = type: functional, cell-based
Description: SANGER: Inhibition of human Mo-T cell growth in a cell viability assay.

L-428 = type: functional, cell-based
Description: SANGER: Inhibition of human L-428 cell growth in a cell viability assay.

NB6 = type: functional, cell-based;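 also: growth inhibition of NB6 cells, read out by a cell viability assay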
Description: SANGER: Inhibition of human NB6 cell growth in a cell viability assay.

CP66-MEL = type: functional, cell-based;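 also: growth inhibition of CP66-MEL cells determined in a cell viability assay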
Description: SANGER: Inhibition of human CP66-MEL cell growth in a cell viability assay.

NCI-H510A = type: functional, cell-based;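 also: growth inhibition of NCI-H510A cells, read out with a cell viability assay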
Description: SANGER: Inhibition of human NCI-H510A cell growth in a cell viability assay.

NKM-1 = type: functional, cell-based;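 also: growth inhibition of NKM-1 cells, read out with a cell viability assay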
Description: SANGER: Inhibition of human NKM-1 cell growth in a cell viability assay.

TGBC24TKB = type: functional, cell-based;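 also: growth inhibition of human TGBC24TKB cells, read out with a cell viability assay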
Description: SANGER: Inhibition of human TGBC24TKB cell growth in a cell viability assay.

HAL-01 = type: functional, cell-based;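 also: growth inhibition of human HAL-01 cells, read out with a cell viability assay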
Description: SANGER: Inhibition of human HAL-01 cell growth in a cell viability assay.

EKVX = type: functional, cell-based;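 also: growth inhibition of human EKVX cells, read out with a cell viability assay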
Description: SANGER: Inhibition of human EKVX cell growth in a cell viability assay.

MHH-NB-11 = type: functional, cell-based;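 also: growth inhibition of human MHH-NB-11 cells, read out by a cell viability assay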
Description: SANGER: Inhibition of human MHH-NB-11 cell growth in a cell viability assay.

COLO-829 = type: functional, cell-based
Description: SANGER: Inhibition of human COLO-829 cell growth in a cell viability assay.

LS-411N = type: functional, cell-based
RH-1 = type: functional, cell-based;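 also: growth inhibition of human RH-1 cells, read out with a cell viability assay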
Description: SANGER: Inhibition of human RH-1 cell growth in a cell viability assay.

EW-3 = type: functional, cell-based;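 also: cell viability assay read-out, IC50 reflects inhibition of growth of the EW-3 cells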
Description: SANGER: Inhibition of human EW-3 cell growth in a cell viability assay.

GI-ME-N = type: functional, cell-based;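 also: growth inhibition of human GI-ME-N cells, read out with a cell viability assay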
Description: SANGER: Inhibition of human GI-ME-N cell growth in a cell viability assay.

OCUB-M = type: functional, cell-based;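 also: growth inhibition of the cancer cell line, read out through a cell viability assay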
Description: SANGER: Inhibition of human OCUB-M cell growth in a cell viability assay.

COLO-668 = type: functional, cell-based
Description: SANGER: Inhibition of human COLO-668 cell growth in a cell viability assay.

LB831-BLC = type: functional, cell-based;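 also: growth inhibition of LB831-BLC cells, read out with a cell viability assay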
Description: SANGER: Inhibition of human LB831-BLC cell growth in a cell viability assay.

D-263MG = type: functional, cell-based
Description: SANGER: Inhibition of human D-263MG cell growth in a cell viability assay.

HuTu80 = type: functional, cell-based, HUTU-80;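 also: growth inhibition of HuTu80 human cells, determined with a cell viability readout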
Description: SANGER: Inhibition of human HUTU-80 cell growth in a cell viability assay.

NCI-H1092 = type: functional, cell-based;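 also: cell growth inhibition measured with a cell viability assay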
Description: SANGER: Inhibition of human NCI-H1092 cell growth in a cell viability assay.

SK-UT-1 = type: functional, cell-based;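 also: growth inhibition of SK-UT-1 cells, measured by a cell viability assay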
Description: SANGER: Inhibition of human SK-UT-1 cell growth in a cell viability assay.

BB49-HNC = type: functional, cell-based;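 also: cell viability assay read-out, reported as inhibition of BB49-HNC cell growth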
Description: SANGER: Inhibition of human BB49-HNC cell growth in a cell viability assay.

MSTO-211H = type: functional, cell-based
Description: SANGER: Inhibition of human MSTO-211H cell growth in a cell viability assay.

LU-134-A = type: functional, cell-based
Description: SANGER: Inhibition of human LU-134-A cell growth in a cell viability assay.

OVCAR-4 = type: functional, cell-based;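 also: growth inhibition of human OVCAR-4 cells, measured with a cell viability assay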
Description: SANGER: Inhibition of human OVCAR-4 cell growth in a cell viability assay.

LB1047-RCC = type: functional, cell-based;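 also: inhibition of cell growth, determined with a cell viability assay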
Description: SANGER: Inhibition of human LB1047-RCC cell growth in a cell viability assay.

A498 = type: functional, cell-based;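 also: growth inhibition of human A498 cells, read out with a cell viability assay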
Description: SANGER: Inhibition of human A498 cell growth in a cell viability assay.

NCI-H1355 = type: functional, cell-based;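 also: growth inhibition of human NCI-H1355 cells, read out by a cell viability assay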
Description: SANGER: Inhibition of human NCI-H1355 cell growth in a cell viability assay.

EW-11 = type: functional, cell-based;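 also: growth inhibition of human EW-11 cells, measured with a cell viability assay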
Description: SANGER: Inhibition of human EW-11 cell growth in a cell viability assay.

SHP77 = type: functional, cell-based, SHP-77;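 also: growth inhibition of human SHP-77 cells measured by a cell viability assay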
Description: SANGER: Inhibition of human SHP-77 cell growth in a cell viability assay.

HL-60 = type: functional, cell-based;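 also: growth inhibition of human HL-60 cells, read out with a cell viability assay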
Description: SANGER: Inhibition of human HL-60 cell growth in a cell viability assay.

MPP-89 = type: functional, cell-based;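 also: growth inhibition of human MPP-89 cells, read out with a cell viability assay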
Description: SANGER: Inhibition of human MPP-89 cell growth in a cell viability assay.

COLO-684 = type: functional, cell-based
Description: SANGER: Inhibition of human COLO-684 cell growth in a cell viability assay.

COR-L88 = type: functional, cell-based;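 also: growth inhibition of COR-L88 cells, read out with a cell viability assay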
Description: SANGER: Inhibition of human COR-L88 cell growth in a cell viability assay.

JAR = type: functional, cell-based;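 also: growth inhibition of human JAR cells determined with a cell viability assay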
Description: SANGER: Inhibition of human JAR cell growth in a cell viability assay.

NB10 = type: functional, cell-based;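 also: growth inhibition of NB10 cells, read out by a cell viability assay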
Description: SANGER: Inhibition of human NB10 cell growth in a cell viability assay.

KE-37 = type: functional, cell-based;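 also: growth inhibition of KE-37 cells, read out with a cell viability assay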
Description: SANGER: Inhibition of human KE-37 cell growth in a cell viability assay.

BT-474 = type: functional, cell-based
Description: SANGER: Inhibition of human BT-474 cell growth in a cell viability assay.

LB373-MEL-D = type: functional, cell-based;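 also: growth inhibition of the cell line, read out in a cell viability assay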
Description: SANGER: Inhibition of human LB373-MEL-D cell growth in a cell viability assay.

BB30-HNC = type: functional, cell-based;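 also: growth inhibition of the cultured cell line, read out by a cell viability assay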
Description: SANGER: Inhibition of human BB30-HNC cell growth in a cell viability assay.

EW-18 = type: functional, cell-based;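 also: growth inhibition of EW-18 cells, read out by a cell viability assay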
Description: SANGER: Inhibition of human EW-18 cell growth in a cell viability assay.

LXF-289 cell line = type: functional, cell-based
Description: SANGER: Inhibition of human LXF-289 cell growth in a cell viability assay.

LNCaP-Clone-FGC = type: functional, cell-based
Description: SANGER: Inhibition of human LNCaP-Clone-FGC cell growth in a cell viability assay.

CW-2 = type: functional, cell-based;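 also: growth inhibition of CW-2 cells, read out by a cell viability assay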
Description: SANGER: Inhibition of human CW-2 cell growth in a cell viability assay.

LS-513 = type: functional, cell-based
Description: SANGER: Inhibition of human LS-513 cell growth in a cell viability assay.

KY821 = type: functional, cell-based;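 also: growth inhibition of human KY821 cells, read out by a cell viability assay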
Description: SANGER: Inhibition of human KY821 cell growth in a cell viability assay.

LB771-HNC = type: functional, cell-based;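 also: growth inhibition of LB771-HNC human cells, read out with a cell viability assay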
Description: SANGER: Inhibition of human LB771-HNC cell growth in a cell viability assay.

SW 962 = type: functional, cell-based;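 also: growth inhibition of human SW962 cells, read out by a cell viability assay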
Description: SANGER: Inhibition of human SW962 cell growth in a cell viability assay.

TE-8 = type: functional, cell-based;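 also: growth inhibition of TE-8 cells, measured with a cell viability readout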
Description: SANGER: Inhibition of human TE-8 cell growth in a cell viability assay.

DSH1 = type: functional, cell-based;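 also: growth inhibition of human DSH1 cells, measured with a cell viability readout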
Description: SANGER: Inhibition of human DSH1 cell growth in a cell viability assay.

SW684 = type: functional, cell-based;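 also: growth inhibition of human SW684 cells, measured by a cell viability assay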
Description: SANGER: Inhibition of human SW684 cell growth in a cell viability assay.

COLO-320-HSR = type: functional, cell-based;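 also: growth inhibition of COLO-320-HSR cells, determined with a cell viability assay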
Description: SANGER: Inhibition of human COLO-320-HSR cell growth in a cell viability assay.

Lu-65 = type: functional, cell-based;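 also: growth inhibition of Lu-65 cancer cells, read out by a cell viability assay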
Description: SANGER: Inhibition of human LU-65 cell growth in a cell viability assay.

TE-1 = type: functional, cell-based;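 also: growth inhibition of the human TE-1 cell line, read out with a cell viability assay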
Description: SANGER: Inhibition of human TE-1 cell growth in a cell viability assay.

KARPAS-299 = type: functional, cell-based
Description: SANGER: Inhibition of human KARPAS-299 cell growth in a cell viability assay.

IST-MES1 = type: functional, cell-based;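 also: growth inhibition of IST-MES1 cells, measured with a cell viability assay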
Description: SANGER: Inhibition of human IST-MES1 cell growth in a cell viability assay.

NCI-H526 = type: functional, cell-based;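 also: growth inhibition of the human NCI-H526 cell line, measured by a cell viability assay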
Description: SANGER: Inhibition of human NCI-H526 cell growth in a cell viability assay.

BV-173 = type: functional, cell-based
Description: SANGER: Inhibition of human BV-173 cell growth in a cell viability assay.

COLO-800 = type: functional, cell-based;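 also: growth inhibition of COLO-800 cells, read out with a cell viability assay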
Description: SANGER: Inhibition of human COLO-800 cell growth in a cell viability assay.

D283 Med = type: functional, cell-based
Description: SANGER: Inhibition of human D-283MED cell growth in a cell viability assay.

ALL-PO = type: functional, cell-based;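 also: growth inhibition of ALL-PO cells, read out by a cell viability assay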
Description: SANGER: Inhibition of human ALL-PO cell growth in a cell viability assay.

NH-12 = type: functional, cell-based;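 also: growth inhibition of NH-12 cells, read out with a cell viability assay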
Description: SANGER: Inhibition of human NH-12 cell growth in a cell viability assay.

C2BBe1 = type: functional, cell-based;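 also: growth inhibition of C2BBe1 cells, read out through a viability assay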
Description: SANGER: Inhibition of human C2BBe1 cell growth in a cell viability assay.

Cc1[nH]c(/C=C2\C(=O)Nc3ccc(S(=O)(=O)Cc4c(Cl)cccc4Cl)cc32)c(C)c1C(=O)N1CCC[C@@H]1CN1CCCC1 [PHA-665752]
IC50 (NCI-H1650): > 2 µM | IC50 (Mo): > 2 µM | IC50 (L-428): > 2 µM | IC50 (NB6): > 2 µM | IC50 (CP66-MEL): > 2 µM | IC50 (NCI-H510A): > 2 µM | IC50 (NKM-1): > 2 µM | IC50 (TGBC24TKB): > 2 µM | IC50 (HAL-01): > 2 µM | IC50 (EKVX): > 2 µM | IC50 (MHH-NB-11): > 2 µM | IC50 (COLO-829): > 2 µM | IC50 (LS-411N): > 2 µM | IC50 (RH-1): > 2 µM | IC50 (EW-3): > 2 µM | IC50 (GI-ME-N): > 2 µM | IC50 (OCUB-M): > 2 µM | IC50 (COLO-668): > 2 µM | IC50 (LB831-BLC): > 2 µM | IC50 (D-263MG): > 2 µM | IC50 (HuTu80): > 2 µM | IC50 (NCI-H1092): > 2 µM | IC50 (SK-UT-1): > 2 µM | IC50 (BB49-HNC): > 2 µM | IC50 (MSTO-211H): > 2 µM | IC50 (LU-134-A): > 2 µM | IC50 (OVCAR-4): > 2 µM | IC50 (LB1047-RCC): > 2 µM | IC50 (A498): > 2 µM | IC50 (NCI-H1355): > 2 µM | IC50 (EW-11): > 2 µM | IC50 (SHP77): > 2 µM | IC50 (HL-60): > 2 µM | IC50 (MPP-89): > 2 µM | IC50 (COLO-684): > 2 µM | IC50 (COR-L88): > 2 µM | IC50 (JAR): > 2 µM | IC50 (NB10): > 2 µM | IC50 (KE-37): > 2 µM | IC50 (BT-474): > 2 µM | IC50 (LB373-MEL-D): > 2 µM | IC50 (BB30-HNC): > 2 µM | IC50 (EW-18): > 2 µM | IC50 (LXF-289 cell line): > 2 µM | IC50 (LNCaP-Clone-FGC): > 2 µM | IC50 (CW-2): > 2 µM | IC50 (LS-513): > 2 µM | IC50 (KY821): > 2 µM | IC50 (LB771-HNC): > 2 µM | IC50 (SW 962): > 2 µM | IC50 (TE-8): > 2 µM | IC50 (DSH1): > 2 µM | IC50 (SW684): > 2 µM | IC50 (COLO-320-HSR): > 2 µM | IC50 (Lu-65): > 2 µM | IC50 (TE-1): > 2 µM | IC50 (KARPAS-299): > 2 µM | IC50 (IST-MES1): > 2 µM | IC50 (NCI-H526): > 2 µM | IC50 (BV-173): > 2 µM | IC50 (COLO-800): > 2 µM | IC50 (D283 Med): > 2 µM | IC50 (ALL-PO): 0.813 µM | IC50 (NH-12): > 2 µM | IC50 (C2BBe1): > 2 µM

CC(C)=CC[C@@H](O)C1=CC(=O)c2c(O)ccc(O)c2C1=O [SHIKONIN]
IC50 (NCI-H1650): 1.38 µM | IC50 (Mo): 0.82 µM | IC50 (L-428): 1.21 µM | IC50 (NB6): 0.454 µM | IC50 (CP66-MEL): 2.4 µM | IC50 (NCI-H510A): > 16 µM | IC50 (NKM-1): 0.101 µM | IC50 (TGBC24TKB): > 16 µM | IC50 (HAL-01): 0.196 µM | IC50 (EKVX): 3.67 µM | IC50 (MHH-NB-11): 0.486 µM | IC50 (COLO-829): 0.658 µM | IC50 (LS-411N): 3.19 µM | IC50 (RH-1): 0.72 µM | IC50 (EW-3): 0.722 µM | IC50 (GI-ME-N): 0.552 µM | IC50 (OCUB-M): 0.865 µM | IC50 (COLO-668): 6.2 µM | IC50 (LB831-BLC): 1.92 µM | IC50 (D-263MG): 2.23 µM | IC50 (HuTu80): 0.37 µM | IC50 (NCI-H1092): 1.39 µM | IC50 (SK-UT-1): < 0.0625 µM | IC50 (BB49-HNC): > 16 µM | IC50 (MSTO-211H): > 16 µM | IC50 (LU-134-A): 0.81 µM | IC50 (OVCAR-4): 0.67 µM | IC50 (LB1047-RCC): 0.302 µM | IC50 (A498): 0.0819 µM | IC50 (NCI-H1355): 2.82 µM | IC50 (EW-11): 0.447 µM | IC50 (SHP77): 0.446 µM | IC50 (HL-60): 1.92 µM | IC50 (MPP-89): 0.857 µM | IC50 (COLO-684): 0.401 µM | IC50 (COR-L88): > 16 µM | IC50 (JAR): 3.26 µM | IC50 (NB10): 1.34 µM | IC50 (KE-37): 0.244 µM | IC50 (BT-474): 0.208 µM | IC50 (LB373-MEL-D): 0.391 µM | IC50 (BB30-HNC): 0.243 µM | IC50 (EW-18): 0.529 µM | IC50 (LXF-289 cell line): 3.27 µM | IC50 (LNCaP-Clone-FGC): > 16 µM | IC50 (CW-2): > 16 µM | IC50 (LS-513): 1.48 µM | IC50 (KY821): 0.747 µM | IC50 (LB771-HNC): > 16 µM | IC50 (SW 962): 0.568 µM | IC50 (TE-8): 1.28 µM | IC50 (DSH1): 10.6 µM | IC50 (SW684): 0.777 µM | IC50 (COLO-320-HSR): 0.384 µM | IC50 (Lu-65): > 16 µM | IC50 (TE-1): 15.8 µM | IC50 (KARPAS-299): 0.799 µM | IC50 (IST-MES1): 1.7 µM | IC50 (NCI-H526): 2.64 µM | IC50 (BV-173): 0.436 µM | IC50 (COLO-800): > 16 µM | IC50 (D283 Med): 0.835 µM | IC50 (ALL-PO): 0.315 µM | IC50 (NH-12): 0.85 µM | IC50 (C2BBe1): 0.756 µM
